For assay [1], the target named is RBDWuhan (SARS-CoV-2 spike RBD, Wuhan-Hu-1 variant) (Severe acute respiratory syndrome coronavirus 2, UniProt P0DTC2). In kind it is binding. The conditions noted are these: read-out: K D values RBDWuhan.
Assay [2] addresses SWuhan (SARS-CoV-2 S protein HexaPro, Wuhan-Hu-1 variant) (Severe acute respiratory syndrome coronavirus 2, UniProt P0DTC2, A892P/A899P/A942P/F817P/K986P/V987P). In kind it is binding. The note with it: read-out: K D values SWuhan.
The target of assay [3] is RBDBA.1 (SARS-CoV-2 spike RBD, Omicron BA.1 variant) (Severe acute respiratory syndrome coronavirus 2, UniProt P0DTC2, E484A/G339D/G446S/G496S/K417N/N440K/N501Y/Q493R/Q498R/S371L/S373P/S375F/S477N/T478K/Y505H). In kind it is binding. The conditions noted are these: read-out: K D values RBDBA.1.
In assay [4] the target is SBA.1 (SARS-CoV-2 S protein, Omicron BA.1 variant) (Severe acute respiratory syndrome coronavirus 2, UniProt P0DTC2, A67V/D614G/D796Y/DEL143-145/DEL211-211/DEL69-70/E484A/G142D/G339D/G446S/G496S/H655Y/INS214EPE/K417N/L212I/L981F/N440K/N501Y/N679K/N764K/N856K/N969K/P681H/Q493R/Q498R/Q954H/S371L/S373P/S375F/S477N/T478K/T547K/T95I/Y505H, form not given). It is filed as binding. The note with it: read-out: K D values SBA.1.

For assay [5], the target named is protein S (S:D614G) (Severe acute respiratory syndrome coronavirus 2, UniProt P0DTC2, D614G). Also noted: species or system SARS-CoV-2.

In the case of catechin, the Kd was more than 1 mM in assay [1], 927 ± 76 µM in assay [2], more than 1 mM in assay [3] and more than 1 mM in assay [4].
As to `CCCCCCCCc1ccc(CCC(N)(CO)CO)cc1` [fingolimod], in assay [5], the “architecture of spikes by negative-stain electron microscopy” value is “do not damage the architecture of the proteins”.

The values are drawn from article PMC12423841 (ACS Omega, 2025).
